{"source": "paper PMC5816668", "about": "“Insights into the inhibitory mechanisms of NADH on the αγ heterodimer of human NAD-dependent isocitrate dehydrogenase” (Scientific Reports, 2018)", "key": {"[1]": {"molecular_target": "T1, αβ heterodimer of human NAD-IDH (Homo sapiens, UniProt P50213)", "T1 construct": "gene IDH3A; alpha 37 kDa, beta 39 kDa; heterodimer", "T1 sequence (O43837 35-385 partner, one chain of several)": "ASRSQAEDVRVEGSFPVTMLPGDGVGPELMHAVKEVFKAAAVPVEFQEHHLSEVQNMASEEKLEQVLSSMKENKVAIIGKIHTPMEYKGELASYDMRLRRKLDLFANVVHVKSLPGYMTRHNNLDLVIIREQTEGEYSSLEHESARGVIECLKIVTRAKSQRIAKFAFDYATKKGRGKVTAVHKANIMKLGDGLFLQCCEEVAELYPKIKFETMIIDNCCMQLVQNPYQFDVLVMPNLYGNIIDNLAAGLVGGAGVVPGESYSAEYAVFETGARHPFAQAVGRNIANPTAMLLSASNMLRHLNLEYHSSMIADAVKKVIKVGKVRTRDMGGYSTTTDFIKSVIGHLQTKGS", "assay": "ITC", "type": "binding", "conditions": "50 mM HEPES pH 7.4, 200 mM NaCl, 20 °C, read-out: K d (μ M) ^a", "source_text": "ITC on αβ heterodimer of human NAD-IDH"}, "[2]": {"molecular_target": "T1, αβ heterodimer of human NAD-IDH", "assay": "NADH formation at […] nm", "type": "biochemical", "conditions": "33 mM Tris-acetate pH 7.4, 20 mM DL-isocitrate, 1 mM NAD+, 25 °C"}, "[3]": {"molecular_target": "T2, αγ heterodimer of human NAD-IDH (Homo sapiens, UniProt P50213+P51553)", "T2 construct": "gene IDH3A; E. coli BL21(DE3) Codon-Plus co-expression from pQlinkN-α-γ-tev-His6; C-terminal His6 of gamma cut with TEV protease; alpha 37 kDa, gamma 39 kDa; heterodimer", "T2 sequence (P50213 28-366)": "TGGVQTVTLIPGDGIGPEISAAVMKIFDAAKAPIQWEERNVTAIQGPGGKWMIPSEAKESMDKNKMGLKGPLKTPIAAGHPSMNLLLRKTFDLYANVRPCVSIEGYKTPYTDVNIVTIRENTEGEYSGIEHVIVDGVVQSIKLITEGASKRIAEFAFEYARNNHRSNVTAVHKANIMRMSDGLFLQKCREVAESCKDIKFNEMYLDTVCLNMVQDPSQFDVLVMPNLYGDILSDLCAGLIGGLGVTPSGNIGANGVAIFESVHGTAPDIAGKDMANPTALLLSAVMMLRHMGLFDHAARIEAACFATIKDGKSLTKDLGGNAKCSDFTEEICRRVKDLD", "T2 sequence (P51553 40-393)": "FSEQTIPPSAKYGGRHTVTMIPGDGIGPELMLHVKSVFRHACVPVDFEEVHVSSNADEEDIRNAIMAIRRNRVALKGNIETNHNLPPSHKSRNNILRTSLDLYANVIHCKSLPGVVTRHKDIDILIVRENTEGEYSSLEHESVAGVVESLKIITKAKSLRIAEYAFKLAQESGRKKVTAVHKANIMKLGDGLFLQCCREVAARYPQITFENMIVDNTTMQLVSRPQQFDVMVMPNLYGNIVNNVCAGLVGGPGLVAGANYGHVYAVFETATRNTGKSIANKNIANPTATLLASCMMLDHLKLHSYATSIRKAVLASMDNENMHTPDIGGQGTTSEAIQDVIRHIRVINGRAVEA", "assay": "ITC", "type": "binding", "conditions": "read-out: K d (μ M) ^a", "source_text": "ITC on αγ heterodimer of human NAD-IDH"}, "[4]": {"molecular_target": "T3, α2βγ heterotetramer of human NAD-IDH (Homo sapiens, UniProt P50213+P51553)", "T3 construct": "gene IDH3A; alpha 37 kDa, beta 39 kDa, gamma 39 kDa", "T3 sequence (O43837 35-385 partner, one chain of several)": "as the sequence (O43837 35-385 partner, one chain of several) above", "assay": "ITC", "type": "binding", "conditions": "50 mM HEPES pH 7.4, 200 mM NaCl, 20 °C; single set of sites fit, n 2.53; read-out: K d (μ M) ^a", "source_text": "ITC on α2βγ heterotetramer of human NAD-IDH"}, "[5]": {"molecular_target": "T3, α2βγ heterotetramer of human NAD-IDH", "assay": "NADH formation at […] nm", "type": "biochemical", "conditions": "33 mM Tris-acetate pH 7.4, 2 mM MnCl2, 20 mM DL-isocitrate, 1 mM NAD+, 25 °C"}, "[6]": {"molecular_target": "T2, αγ heterodimer of human NAD-IDH", "assay": "NADH formation at […] nm", "type": "biochemical"}}, "note": "Like-named read-outs stand apart in the source and are kept apart here.", "data": [{"smiles": "NC(=O)C1=CN([C@@H]2O[C@H](COP(=O)(O)OP(=O)(O)OC[C@H]3O[C@@H](n4cnc5c(N)ncnc54)[C@H](O)[C@@H]3O)[C@@H](O)[C@H]2O)C=CC1", "note": "[NADH]", "values": [{"measurement": "Kd", "setting": "[1]; single set of sites fit, n 1.26", "result": "4.6 ± 0.7", "unit": "µM"}, {"measurement": "IC50", "setting": "[2]", "result": "94.9 ± 7.8", "unit": "µM"}, {"measurement": "Kd", "setting": "[3]", "result": "109 ± 19.5", "unit": "µM"}, {"measurement": "Kd", "setting": "[4]", "result": "46.3 ± 6.5", "unit": "µM"}, {"measurement": "IC50", "setting": "[5]", "result": "78.5 ± 5.4", "unit": "µM"}, {"measurement": "IC50", "setting": "[6]", "result": "82.7 ± 6", "unit": "µM"}]}, {"smiles": "NC(=O)c1ccc[n+]([C@@H]2O[C@H](COP(=O)(O)OP(=O)(O)OC[C@H]3O[C@@H](n4cnc5c(N)ncnc54)[C@H](O)[C@@H]3O)[C@@H](O)[C@H]2O)c1", "note": "[NAD^+]", "values": [{"measurement": "Kd", "setting": "[1]; no isocitrate, n 1.14", "result": "268 ± 28.4", "unit": "µM"}]}]}
